Test results from US20200270588A1, “GLUCOSYL TRANSFERASE POLYPEPTIDES AND METHODS OF USE” (Syngenta Participations AG, priority 2017, published 2020).
“And” between values parts separate entries of the source, which are not always exact repeats. Equal values may be shown once.

What was measured:
wild type tobacco plants = test: Glass house spray test on tobacco, percent damage; assay type: in vivo; settings: 14 DAT
Protocol: Once rooted, plantlets are transferred from agar and potted into 50% peat, 50% John Innes Soil No. 3 with slow-release fertilizer in 3 inch round pots and left regularly watered to establish for 8-12d in the glass house. Glass house conditions are about 24-27° C. day; 18-21° C. night and approximately a 14h photoperiod. Humidity is adjusted to ˜65% and light levels used are up to 2000 μmol/m^2 at bench level.
Three transgenic populations of about forty tobacco plants and comprising, a glucosyl transferase gene encoding either zmBX8 (SEQ ID NO 2) or zmBX9 (SEQ ID NO 1) were thus produced. A sub-set of about 30 plants were selected on the basis of similar size from each population for spray testing. The plants were then sprayed with 30 g/ha of Compound VI. VI was mixed in water with 0.2-0.25% X-77 surfactant and sprayed from a boom on a suitable track sprayer moving at 2 mph with the nozzle about 2 inches from the plant tops. Spray volume was 200 l/ha. Plants were assessed for damage and scored at 7 and 14 days after treatment (DAT).
In a further example, Zea mays BX8 or BX9 or orthologues of BX8/9, are altered to carry amino acid variants at various positions which increase tolerance to the alcohol and aminal PSII herbicides as described in the example above. DNA sequences that encode these polypeptides (optimized for tobacco or, optionally, codon optimized according to a target crop such as soybean) were prepared for tobacco transformation as described in example 10. […] Transgenic tobacco populations expressing SEQ ID NOs 16 and 17 were generated alongside a population expressing the parental zmBX9 sequence (SEQ ID 1). These populations were sprayed with herbicide V and VI at rates of 200 and 500 g/ha. Plants were assessed for damage and scored at 14 days after treatment (DAT). The results are depicted in Table 19 and also in FIG. 6.

[1] = target: T1, SEQ ID 33, mutant bx-type glucosyl transferase (Zea mays, UniProt Q8W2B7, A285K); test: LC/MS glucosyl transferase assay (glucoside peak area), purified enzyme; assay type: biochemical; settings: about 60 min, ~15 pmol enzyme, relative quantification only
T1 construct: 33; 1.70E+05; 3.59E+07; 9.27E+06; His tag; made in house
T1 sequence (Q8W2B7 whole entry A285K): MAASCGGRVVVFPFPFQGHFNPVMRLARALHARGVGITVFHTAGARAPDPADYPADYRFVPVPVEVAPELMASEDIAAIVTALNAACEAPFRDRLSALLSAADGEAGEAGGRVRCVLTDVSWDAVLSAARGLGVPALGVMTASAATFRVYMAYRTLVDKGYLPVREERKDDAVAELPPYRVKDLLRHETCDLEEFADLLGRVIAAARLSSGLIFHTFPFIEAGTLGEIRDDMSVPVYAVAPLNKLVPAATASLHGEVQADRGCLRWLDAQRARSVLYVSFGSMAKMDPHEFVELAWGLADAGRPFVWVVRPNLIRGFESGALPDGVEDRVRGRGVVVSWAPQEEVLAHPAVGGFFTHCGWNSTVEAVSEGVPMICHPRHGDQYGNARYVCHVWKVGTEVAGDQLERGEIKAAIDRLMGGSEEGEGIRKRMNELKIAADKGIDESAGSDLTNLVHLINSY
Protocol: (§1) In an alternative method for assaying the various enzymes, the test glucosyl transferase enzyme is reacted with substrates exactly as above except that the assay is stopped by adding an equal volume of acetonitrile. Alternatively 50 or 100 μl samples from assay reactions are added to 500 μl ethyl acetate to stop the reaction. In this case samples are then vortexed and 400 μl of the ethyl acetate partition removed, dried down, and resuspended in 100 μl 80:20 acetonitrile/water. The formation of product gluco side and/or disappearance of substrate test herbicide is then monitored directly by LC/MS. Samples are analyzed by LC-MS using an Agilent 1290 liquid chromatography system and Thermo Q-Exactive mass spectrometer. The chromatography is achieved on a Waters Acquity C18 BEH (50×2.1 mm) 1.7 μm particle size column, using a 6 minute gradient run of Water (0.2% formic acid) and Acetonitrile. The Q-Exactive is operated in positive ionisation electrospray mode, using Full scan-AIF mode, at 35,000 resolution, between 100-800 m/z. All analytes are identified from the full scan data to within at least 5 ppm accuracy of their predicted pseudo-molecular ion [M+H]^+ m/z value. In order to obtain quantitative data standard curves are run using herbicides and herbicide glucosides synthesized as standards. Where these synthetic glucosides were not available the LC/MS assay could only be used to provide relative data.
(§2) DNA sequences, optimized for E. coli codon usage, were cloned, expressed and the various proteins purified and assayed as described in the foregoing examples. Using the UDP assay (as described in examples 1, 3 and 6) the data obtained from the Zea mays bx8 w/t protein and its variants was noisy due to relatively high background rates in DMSO reagent blanks. The values reported in the table 15 were thus monitored by LC/MS as described in example 1.

[2] = target: T2, SEQ ID 31, mutant bx-type glucosyl transferase (Zea mays, UniProt Q8W2B7, S121V); test: as above; assay type: biochemical; settings: about 60 min, ~15 pmol enzyme, relative quantification only
T2 construct: 31; nd; 8.84E+06; 5.57E+06; His tag; made in house
T2 sequence (Q8W2B7 whole entry S121V): as the sequence (Q8W2B7 whole entry A285K) above, with S121V, K285A counted along it
Protocol: as §1, §2

[3] = tested on: SEQ ID 47, mutant bx-type glucosyl transferase; test: as above; assay type: biochemical; settings: about 60 min, ~15 pmol enzyme, nd = not detectable
Protocol: as §1, §2

Structure (SMILES)	percent damage (wild type tobacco plants; 30 g/ha compound VI, plants A, B, C)	percent damage (wild type tobacco plants; 500 gai/ha VI, WT tobacco plants 1-9)	integrated peak area of beta-glucoside product [1]	integrated peak area of beta-glucoside product [2]	integrated peak area of beta-glucoside product [3]	percent damage (wild type tobacco plants; 200 gai/ha V, WT tobacco plants 1-9)	percent damage (wild type tobacco plants; 500 gai/ha V, WT tobacco plants 1-9)
CON1C(=O)N(c2cc(C(F)(F)F)ccn2)C(O)[C@@H]1C (stereo partly shown) [Compound VI]	75% and 95% and 85%	100%	3.59E+07 and 3.45E+07	8.84E+06 and 1.04E+07	1.68E+05 and 1.05E+05	–	–
CN1CC(O)N(c2cc(C(F)(F)F)ccn2)C1=O (stereo not shown) [Compound V]	–	–	9.27E+06 and 9.76E+06	5.57E+06 and 5.59E+06	8.67E+05 and 6.30E+05	100%	100%
